In one assay the target is a-chymotrypsin (Bos taurus, UniProt P00766). Nature of the assay: Measurement of inhibitory effect on a-chymotrypsin (glutaryl-L-phenylalanine-p-nitroanilide substrate). Format: biochemical. The note with it: a-chymotrypsin activity, 25 ° C, pH = 7.8. The protocol: Test Example 3 Measurement of Inhibitory Effect on Protease other than Calpain
(2) Measurement of Inhibitory Effect on a-Chymotrypsin
The inhibitory effect on a-chymotrypsin was measured by a partially modified method of Erlanger, B. F. as described in Ach. Biochem. Biophys. 115, 206-210 (1966). […]
The mixture was preincubated at 25 ° C for 3 minutes. […] The increase of 405 nm absorbance was measured at 25 ° C with time, and the transition rate (a) of the absorbance per min was calculated.
The rate (b) of the absorbance of a blank sample treated similarly without any compound dissolved in combined dimethyl sulfoxide and 10% polyoxyethylene 60 hardened castor oil was measured. The inhibition of a-chymotrypsin activity was calculated in accordance with the formula [(b-a)/b] X 100, and the amount of each compound necessary to inhibit a-chymotrypsin activity by 50% [ICso] was calculated according to the method of Probit.
The inhibitory effect of SUAM-14541, a compound disclosed in Japanese Laid-Open Patent Application 1-121257, on a-chymotrypsin activity was measured for comparison.

Another assay has as its system Calpain. Nature of the assay: Measurement of calpain inhibiting effect (casein hydrolysis, IC50 by Probit). Format: biochemical, Japanese white rabbit. The note with it: 30 °C for 30 minutes, pH = 7.5, IC50 by method of Probit. The protocol:
Test Example 1 Measurement of Calpain Inhibiting Effect
Calpain was separated from a skeletal muscle of a Japanese white rabbit and partially purified according to the method of Tsuji and Imahori as described in J.Biochem. 90, 233-240 (1981), whereby the calpain for use in a test for investigating the calpain inhibiting effect (i.e., the inhibitory effect on calpain activity) of the aldehyde compounds according to the present invention was prepared.
The calpain inhibiting effect was measured in accordance with the method of Yoshimura et al. as described in J. Biol. Chem. 258, 8883-8889 (1983).
Each assay mixture was prepared by mixing 0.05 ml of a 4% casein solution, 0.05 ml of a 50 mM cysteine solution, 0.05 ml of a calpain solution, 0.025 ml of purified water, 0.025 ml of a 10% dimethyl sulfoxide solution containing each compound shown in Table 15 and 0.25 ml of a 200 mM imidazole hydrochloric acid buffer solution (pH = 7.5).
The thus prepared assay mixture was preincubated at 30 ° C for 3 minutes. The reaction was started by the addition of 0.05 ml of a 50 mM calcium chloride solution to the above mixture. After the incubation at 30 °C for 30 minutes, the reaction was terminated by the addition of 0.5 ml of 5% trichloroacetic acid.
The amount of a trichloroacetic-acid-soluble protein produced by hydrolysis of casein by calpain was measured by the spectrophotometric analysis in accordance with the method of Ross and Schatz as described in Anal. Biochem. 54, 304-306 (1973), and the absorbance (a) of each sample was measured.
The absorbance (b) of a blank sample which was treated similarly without any of the aldehyde compounds of the present invention, dissolved in a 10% dimethyl sulfoxide solution, was measured.
The inhibition of calpain activity was calculated in accordance with the formula [(b-a)/b] X 100, and the amount of each aldehyde compound necessary to inhibit calpain activity by 50% [IC50] was calculated according to the method of Probit.

For assay [1], the system named is Platelet rich plasma (PRP). Nature of the assay: Measurement of platelet-aggregation inhibiting effect (collagen-induced aggregation in platelet rich plasma). Type of assay: cell-based, Japanese white rabbit. The note with it: collagen-induced aggregation in rabbit PRP, preincubated at 37°C for 5 minutes; IC50 by method of Probit. The protocol:
Test Example 2 Measurement of Platelet-aggregation Inhibiting Effect
Platelet rich plasma (PRP) was prepared and the platelet aggregation was measured in accordance with the method of Born and Cross as described in J. Phystol. 168, 178-195 (1963).
Blood of a Japanese white rabbit was drawn from a carotid artery of the rabbit. 9 parts by volume of the blood were mixed with 1 part by volume of a 3.8% aqueous solution of sodium citrate. The mixture was immediately centrifuged at 200 x g at 20 °C for 15 minutes, and PRP was obtained in the supernate. The number of platelets was calculated by use of an electronic cell counter (MEK-4150 manufactured by Nihon Kohden Kabushiki Kaisha). PRP with 55 X 10^4 or more platelets per 1 µl was employed in the tests.
10 µl of a test solution containing any of the aldehyde compounds of the present invention was added to 200 µl of PRP. The mixture was preincubated at 37°C for 5 minutes. To this mixture, 10 µl of collagen (22 µg/ml) was added to cause the aggregation. The aggregation was measured by Agricometer (NKK, PAT-4A).
In preparing the above test solution, each compound synthesized in the previously mentioned Examples as shown in Table 16 was dissolved in combined dimethyl sulfoxide and polyoxyethylene 60 hardened castor oil in ethanol. The mixture was diluted with an isotonic saline and the final concentration of the dimethyl sulfoxide and polyoxyethylene 60 hardened castor oil contained in the above mixture was adjusted to less than 1 %.
The inhibitory activity of each aldehyde compound on platelet aggregation was expressed by percentages compared with a blank test defined as 100% which was performed without any of the aldehyde compounds.
The amount of each aldehyde compound necessary to inhibit the platelet aggregation by 50% [IC50] was calculated according to the method of Probit.

By IC50 is commonly meant the concentration at which inhibition is half-maximal. Read a low IC50 as higher potency. Consider `CC(C)C[C@H](NC(=O)OCc1ccccc1)C(=O)N[C@H](C=O)COCc1ccsc1` [Compound No. 3-6, L-N-benzyloxycarbonylleucine-(2S)-[1-formyl-2-(thiophene-3-ylmethyl)oxy]ethylamide], for which, on a-chymotrypsin, the concentration for half-maximal inhibition (IC50) was greater than 100 µM.
For “L-N-benzyloxycarbonylleucine-(2S)-[1-formyl-3-(2-fluorophenyl)thio]propylamide [Compound No. 3-41]”, the IC50 in the assay on Calpain is 0.27 µM; in assay [1], 56 µM.
On to “L-N-benzyloxycarbonylleucine-(2S)-[1-formyl-3-(4-chlorophenyl)thio]propylamide [Compound No. 3-43]”, for which the half-maximal inhibitory concentration (IC50) in the assay with Calpain was determined as 0.52 µM; in assay [1], 52 µM.

For the origin of these results see patent EP0520336A2, “Aldehyde derivatives and their use as calpain inhibitors” (FUJIREBIO Inc., priority 1991, dated 1992).
